In ChEMBL document CHEMBL3045887, “Synthesis and anticonvulsant activity of some N-(benzoyl)glycinanilide derivatives” (Med Chem Res, 2013) one finds Activity data, which are given here for two molecules.

The source made the active and inactive calls. The calls are words filed in the database; no cut-off is given here.

Series [1] has as its system Mus musculus. Kind of series: Anticonvulsant activity in Swiss albino Mus musculus (mouse) assessed as protection against maximal electric shock-induced tonic-clonic seizures at 30 mg/kg, ip measured at 0.5 hr. It counts as functional, organism-based. The arrangement: dose 30 mg/kg.
In series [2] the test system is Mus musculus. Kind of series: Anticonvulsant activity in Swiss albino Mus musculus (mouse) assessed as protection against maximal electric shock-induced tonic-clonic seizures at 100 mg/kg, ip measured at 4 hr. It counts as functional, organism-based. Also noted: dose 100 mg/kg.
The test system of series [3] is Mus musculus. As to the kind of experiment: Neurotoxicity against Swiss albino Mus musculus (mouse) at 30 mg/kg, ip measured at 0.5 hr. It counts as toxicity, organism-based. Also noted: dose 30 mg/kg, route intraperitoneal. To be noted: in vivo.
For series [4], the system named is Mus musculus. As to the kind of experiment: Anticonvulsant activity in Swiss albino Mus musculus (mouse) assessed as protection against ScMet-induced myoclonic-clonic seizures at 100 mg/kg, ip measured at 0.5 hr. It counts as functional, organism-based. Also noted: dose 100 mg/kg.
Series [5] concerns Mus musculus. As to the kind of experiment: Neurotoxicity against Swiss albino Mus musculus (mouse) at 100 mg/kg, ip measured at 4 hr. It counts as toxicity, organism-based. The note with it: in vivo. The arrangement: dose 100 mg/kg, route intraperitoneal.
Series [6] concerns Mus musculus. As to the kind of experiment: Neurotoxicity against Swiss albino Mus musculus (mouse) at 30 mg/kg, ip measured at 4 hr. It counts as toxicity, organism-based. The note with it: in vivo. The arrangement: dose 30 mg/kg, route intraperitoneal.
Series [7] relates to Mus musculus. Kind of series: Anticonvulsant activity in Swiss albino Mus musculus (mouse) assessed as protection against ScMet-induced myoclonic-clonic seizures at 300 mg/kg, ip measured at 4 hr. The arrangement: dose 300 mg/kg. It counts as functional, organism-based.
The subject of series [8] is Mus musculus. As to the kind of experiment: Anticonvulsant activity in Swiss albino Mus musculus (mouse) assessed as protection against maximal electric shock-induced tonic-clonic seizures at 100 mg/kg, ip measured at 0.5 hr. It counts as functional, organism-based. The arrangement: dose 100 mg/kg.
The test system of series [9] is Mus musculus. As to the kind of experiment: Anticonvulsant activity in Swiss albino Mus musculus (mouse) assessed as protection against ScMet-induced myoclonic-clonic seizures at 30 mg/kg, ip measured at 4 hr. It counts as functional, organism-based. The arrangement: dose 30 mg/kg.
For series [10], the system named is Mus musculus. As to the kind of experiment: Neurotoxicity against Swiss albino Mus musculus (mouse) at 300 mg/kg, ip measured at 4 hr. To be noted: in vivo. It counts as toxicity, organism-based. The arrangement: dose 300 mg/kg, route intraperitoneal.
Series [11] has as its system Mus musculus. Kind of series: Anticonvulsant activity in Swiss albino Mus musculus (mouse) assessed as protection against maximal electric shock-induced tonic-clonic seizures at 30 mg/kg, ip measured at 4 hr. It counts as functional, organism-based. The arrangement: dose 30 mg/kg.
The subject of series [12] is Mus musculus. As to the kind of experiment: Neurotoxicity against Swiss albino Mus musculus (mouse) at 100 mg/kg, ip measured at 0.5 hr. To be noted: in vivo. Also noted: dose 100 mg/kg, route intraperitoneal. It counts as toxicity, organism-based.
Series [13] has as its system Mus musculus. As to the kind of experiment: Anticonvulsant activity in Swiss albino Mus musculus (mouse) assessed as protection against ScMet-induced myoclonic-clonic seizures at 30 mg/kg, ip measured at 0.5 hr. It counts as functional, organism-based. Also noted: dose 30 mg/kg.
Series [14] relates to Mus musculus. Kind of series: Anticonvulsant activity in Swiss albino Mus musculus (mouse) assessed as protection against maximal electric shock-induced tonic-clonic seizures at 300 mg/kg, ip measured at 4 hr. It counts as functional, organism-based. The arrangement: dose 300 mg/kg.
Series [15] relates to Mus musculus. As to the kind of experiment: Anticonvulsant activity in Swiss albino Mus musculus (mouse) assessed as protection against maximal electric shock-induced tonic-clonic seizures at 300 mg/kg, ip measured at 0.5 hr. It counts as functional, organism-based. Also noted: dose 300 mg/kg.
Series [16] relates to Mus musculus. Kind of series: Anticonvulsant activity in Swiss albino Mus musculus (mouse) assessed as protection against ScMet-induced myoclonic-clonic seizures at 100 mg/kg, ip measured at 4 hr. It counts as functional, organism-based. Also noted: dose 100 mg/kg.
The subject of series [17] is Mus musculus. As to the kind of experiment: Neurotoxicity against Swiss albino Mus musculus (mouse) at 300 mg/kg, ip measured at 0.5 hr. It counts as toxicity, organism-based. The arrangement: dose 300 mg/kg, route intraperitoneal. The note with it: in vivo.
Series [18] deals with Mus musculus. Kind of series: Anticonvulsant activity in Swiss albino Mus musculus (mouse) assessed as protection against ScMet-induced myoclonic-clonic seizures at 300 mg/kg, ip measured at 0.5 hr. It counts as functional, organism-based. Also noted: dose 300 mg/kg.

On to `COc1ccc(NC(=O)CNC(=O)c2ccccc2)cc1`, for which the outcome in series [1], in [2], in series [4], in series [7], in series [9] and in [11] was inactive. The outcome in series [13], in [16] and in series [18] was inactive. The Activity entry in [3], in series [5], in series [6], in series [10], in series [12] and in [17] was “Non-toxic” in each case. For the same molecule, the result in series [8], in [14] and in series [15] was Active.
In the case of `Cc1cccc(C)c1NC(=O)CNC(=O)c1ccccc1`, the outcome in series [1], in series [4], in [7], in series [8], in [9] and in [11] was inactive. Further, the result in series [13], in series [15], in [16] and in series [18] was inactive. Also, the outcome in [2] and in [14] was Active. Besides, the Activity result in series [3], in series [5], in [6], in [10], in series [12] and in [17] was “Non-toxic” throughout.
